Measurements taken from patent publication US9834548B2, “Pyridazine compounds as JAK inhibitors” (Portola Pharmaceuticals, Inc., priority 2014, dated 2017).
Where two headings read alike, the source gives them in different places.

Legend:
JAK1 = JAK1 (Homo sapiens (Human), UniProt P23458); assay: Purified kinase assay (Z'-LYTE), JAK1; type: biochemical
Summary of the method: (§1)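 Catalytic-domain recombinant kinase with Tyr6 peptide (a separate Tyr6 kit for TYK2) and ATP, 1% DMSO final, reacted 1 h at room temperature. Z′-LYTE FRET read after 1 h protease development (ex 400, em 445/520 nm). Inhibition computed from percent substrate phosphorylation versus no inhibitor; IC50 from 4-parameter logistic fit.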

JAK2 = JAK2 (Homo sapiens (Human), UniProt O60674); assay: Purified kinase assay (Z'-LYTE), JAK2; type: biochemical
JAK2, sequence (O60674 849-1124): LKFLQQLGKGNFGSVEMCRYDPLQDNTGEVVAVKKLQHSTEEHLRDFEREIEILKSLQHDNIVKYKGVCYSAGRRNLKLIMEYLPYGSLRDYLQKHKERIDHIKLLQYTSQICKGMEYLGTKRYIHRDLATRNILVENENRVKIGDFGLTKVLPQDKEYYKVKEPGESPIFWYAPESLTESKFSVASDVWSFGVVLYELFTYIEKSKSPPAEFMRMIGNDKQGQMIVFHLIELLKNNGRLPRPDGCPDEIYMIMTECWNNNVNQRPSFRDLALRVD
Summary of the method: as §1

JAK3 = JAK3 (Homo sapiens (Human), UniProt P52333); assay: Purified kinase assay (Z'-LYTE), JAK3; type: biochemical
JAK3, sequence (P52333 822-1111): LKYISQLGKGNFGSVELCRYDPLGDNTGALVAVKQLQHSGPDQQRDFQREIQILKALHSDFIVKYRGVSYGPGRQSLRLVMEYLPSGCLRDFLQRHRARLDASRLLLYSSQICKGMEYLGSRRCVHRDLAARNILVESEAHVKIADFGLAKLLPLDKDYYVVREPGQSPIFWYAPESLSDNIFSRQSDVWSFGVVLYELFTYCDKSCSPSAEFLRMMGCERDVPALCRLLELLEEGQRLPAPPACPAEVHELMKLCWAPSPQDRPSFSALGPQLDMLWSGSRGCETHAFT
Summary of the method: as §1

TYK2 = TYK2 (Homo sapiens (Human), UniProt P29597); assay: Purified kinase assay (Z'-LYTE), TYK2; type: biochemical
TYK2, sequence (P29597 897-1176): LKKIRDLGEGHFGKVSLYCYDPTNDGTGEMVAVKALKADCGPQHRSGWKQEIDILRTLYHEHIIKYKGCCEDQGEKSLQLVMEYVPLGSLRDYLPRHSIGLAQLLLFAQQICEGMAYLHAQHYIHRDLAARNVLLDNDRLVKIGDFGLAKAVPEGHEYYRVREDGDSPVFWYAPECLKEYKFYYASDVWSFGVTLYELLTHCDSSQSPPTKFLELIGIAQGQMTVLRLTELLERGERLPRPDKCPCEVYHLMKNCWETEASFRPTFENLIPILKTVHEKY
Description: JAK and TYK2 tyrosine phosphorylation activity is measured using the Z′-LYTE™ Technology developed by Invitrogen Corporation (Carlsbad, Calif.). For JAK1, JAK2 and JAK3 the Z′-LYTE™ Kinase Assay Kit-Tyr6 Peptide (part number PV4122) was used. For TYK2 the Z′-LYTE™ Kinase Assay Kit-Tyr6 Peptide (part number PV3192) was used. The Z′-LYTE™ biochemical assay employs a fluorescence resonance energy transfer (FRET) coupled-enzyme format and is based on the differential sensitivity of phosphorylated and non-phosphorylated peptides to proteolytic cleavage. The assay uses a synthetic peptide substrate that is labeled with a donor fluorophore (coumarin) and an acceptor fluorophore (fluorescein) that make up a FRET pair. In the primary reaction (the Kinase Reaction), the kinase transfers the γ-phosphate of ATP to a single tyrosine residue on the substrate, while the presence of a kinase inhibitor in the primary reaction suppresses phosphorylation. In the secondary reaction (the Development Reaction), a site-specific protease (the Development Reagent) is added. The development buffer quenches the Kinase Reaction, while the protease recognizes and cleaves non-phosphorylated Z′-LYTE™ peptide substrate. Cleavage disrupts FRET between the donor and acceptor fluorophores on the non-phosphorylated substrate, while uncleaved, phosphorylated substrate maintains FRET.
To test the ability of candidate molecules to inhibit JAK tyrosine phosphorylation activity, molecules are reconstituted in 100% DMSO and serially diluted 1:10 in polypropylene v-bottom microtiter plates. The candidate molecules are then diluted 1:25 into kinase buffer and 2.5 μl transferred into duplicate wells of a 384 well low volume black microtiter assay plate (Corning, USA). The final DMSO concentration in the assay is 1%. The kinase reaction contains 2.5 μl of a candidate molecule, 5 μl of catalytic domain recombinant Kinase enzyme+Tyr peptide substrate (Invitrogen, CA) and ATP (Invitrogen, CA). The kinase reaction is allowed to proceed for 1 hour at room temperature. The protease reaction is initiated by the addition of Development Reagent (Invitrogen, CA). After 1 hour incubation at room temperature the fluorescence is measured using a FlexStation plate reader (Molecular Devices, Sunnyvale, Calif.). The reader settings used are as follows: Fluorescence mode, endpoint, top read, excitation 400 nm, emission 445 nm and 520 nm, Auto Cutoff 435 nm and 515 nm, PMT sensitivity high, 6 reads per well Inhibition of JAK activity is calculated as the percent phosphorylation of substrate in the presence of inhibitor compared to the percent phosphorylation of substrate in the absence of inhibitor. IC50's were derived using Xlfit 4.3 (IDBS, UK), 4 parameter logistic model 205: Y=(A+((B−A)/(1+((C/x)^D)))).

[1] = test system: JAK3/JAK1 (IL2-STAT5 in PBMC); assay: Intracellular STAT5 phosphorylation following IL2 stimulation of PBMC (JAK3/JAK1 cellular assay); type: cell-based; conditions: Homo sapiens, read-out: IL2-STAT5 percent inhibition of STAT phosphorylation
Description: Human whole blood was collected into lithium heparin vacutainer tubes from the antecubital vein of human subjects. Peripheral blood mononuclear cells (PBMC) were prepared by layering 10 ml anti-coagulated blood over 5 ml lymphoprep in a 15 ml conical tube and centrifugation for 20 minutes at 400×g in a swinging bucket rotor. The lymphocyte layer was removed, washed twice in tissue culture media (RPMI containing 10% fetal bovine serum) prior to re-suspension in the same media at 2×10^6 cells/ml. 100 μl aliquots of PMBCs were incubated for 1 h at 37° C. with various concentrations of JAK inhibitors prior to stimulation for 15 minutes with 1.5 ng/ml of IL2 or IL4. The reaction was terminated by the addition of 60 μl 16% paraformaldehyde, followed by incubation at room temperature for 10 minutes. Fixed cells were washed twice in PBS, and then re-suspended in −20° C. 50% methanol diluted in PBS and stored at 4° C. overnight. Following permeabilization of the cell membrane in methanol, cells were washed twice in PBS containing 1% BSA and PBMCs were re-suspended in the same buffer containing CD3 and STAT5 Y694 specific antibodies (IL2 stimulations) or CD3, CD14, CD19, and STAT6 Y641 specific antibodies (IL4 stimulations) for 1 hour at room temperature. Cells were then washed and re-suspended in PBS/BSA buffer and assessed by flow cytometry (LSRII; BD Biosciences) for effect of JAK inhibitors on cytokine mediated STAT phosphorylation.
(§2) Percent inhibition of STAT phosphorylation in the cellular assays is provided for the compounds at the given concentrations.

[2] = test system: JAK2 (GM-CSF-induced pSTAT5 in TF1 cells); assay: GMCSF-induced pSTAT5 formation in TF1 (JAK2 cellular assay); type: cell-based; conditions: Homo sapiens, TF-1, read-out: TF1/GM-CSF percent inhibition of STAT phosphorylation
Description: 100 μl aliquots of TFI (2.5×10^6/ml) cells were pre-treated with various concentrations JAK inhibitors (0.04 to 5 μM, including 0.2 μM and 1 μM) for 1 hour at 37° C. Cells were then stimulated with 2 ng/ml GM-CSF for 10 minutes at 37° C. The reaction was terminated by the addition of 60 μl 16% paraformaldehyde followed by incubation for 10 minutes at room temperature. Cells were washed twice (centrifugation 5 minutes room temperature at 385×g) in PBS followed by re-suspension in −20° C. 50% methanol in PBS and storage at 4° C. overnight. The following day, cells were washed in PBS/BSA and re-suspended in the same buffer containing STAT5 Y694 specific antibody. Following incubation with antibodies, cells were washed and analyzed by flow cytometry (BD Biosciences; FACS Calibur). The gate was set on live cells in the SSC-FSC plot and 10,000 events were collected.
as §2

JAK1, sequence (P23458 875-1153): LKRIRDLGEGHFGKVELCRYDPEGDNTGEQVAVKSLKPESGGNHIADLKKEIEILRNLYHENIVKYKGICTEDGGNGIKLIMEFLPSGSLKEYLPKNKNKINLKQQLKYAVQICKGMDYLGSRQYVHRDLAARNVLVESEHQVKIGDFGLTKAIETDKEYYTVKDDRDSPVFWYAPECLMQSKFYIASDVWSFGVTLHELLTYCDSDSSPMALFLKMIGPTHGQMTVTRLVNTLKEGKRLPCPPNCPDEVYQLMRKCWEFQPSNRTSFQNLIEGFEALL

IC50 (JAK1; Table 1, read-out: JAK1 IC50) [nM] | IC50 (JAK1; Table 2, read-out: JAK1) [nM] | IC50 (JAK2; Table 1, read-out: JAK2 IC50) [nM] | IC50 (JAK2; Table 2, read-out: JAK2) [nM] | IC50 (JAK3; Table 1, read-out: JAK3 IC50) [nM] | IC50 (JAK3; Table 2, read-out: JAK3) [nM] | IC50 (TYK2; Table 1, read-out: Tyk2 IC50) [nM] | IC50 (TYK2; Table 2, read-out: TYK2) [nM] | SMILES | inhibition at 0.2 µM [1] [%] | inhibition at 1 µM [1] [%] | inhibition at 0.1 µM [2] [%] | inhibition at 1 µM [2] [%]
100 to 1000 | > 1000 | 10 to 100 | 100 to 1000 | 1 to 10 | 1 to 10 | 100 to 1000 | 100 to 1000 | CC(=O)N1CCN(c2ccc(Nc3cc(NCc4cc(F)cc(F)c4)c(C(N)=O)nn3)cc2)CC1 [Compound 20] | 32 | 60 | 3 | 2
100 to 1000 | 100 to 1000 | 10 to 100 | 10 to 100 | 1 to 10 | 1 to 10 | 10 to 100 | 10 to 100 | CCC(=O)N1CCN(c2ccc(Nc3cc(NCc4c(F)cccc4F)c(C(N)=O)nn3)cc2)CC1 [Compound 33] | 31 | 53 | 0 | 17
100 to 1000 | > 1000 | 10 to 100 | 10 to 100 | 1 to 10 | 1 to 10 | > 1000 | > 1000 | CC(=O)N1CCN(c2ccc(Nc3cc(NCc4cccc5ccsc45)c(C(N)=O)nn3)cc2)CC1 [Compound 98] | 13 | 64 |  | 
10 to 100 | 10 to 100 | 10 to 100 | 10 to 100 | < 1 | 1 to 10 |  |  | CC(=O)N1CCN(c2ccc(Nc3cc(NCc4cccc5[nH]ccc45)c(C(N)=O)nn3)cc2)CC1 [Compound 109] | 69 | 95 |  | 
